3 molecules from patent publication US20200297621A1, “Topical Compositions for Neuropathic Pain” (GOOD PHARMACEUTICAL DEVELOPMENT COMPANY, LLC, priority 2016, published 2020) can be followed below.

Values joined by “and” are separate entries in the source; they are usually repeats but may differ in a detail not shown here. Identical values can stand only once.

This series is described as follows: Stability testing of the topical gabapentin/ketamine composition. More on the design: Assay: unit not given beside the values. Conditions: for Assay (avg): avg of the two determinations; for Assay: single determinations. It is filed as physicochemical.

Take `CNC1(c2ccccc2Cl)CCCCC1=O.Cl` (racemic) [Ketamine HCl, (±) 2-(o-chlorophenyl)-2-(methylamino)-cyclohexanone]: the “Assay (avg)” value is recorded as 105.8 (2 wk, 25/60); 105.2 (2 wk, 40/75); 106.3 (t = 0). Besides, the Assay runs as follows: (2 wk, 25/60) 105.9 and 105.7; (2 wk, 40/75) 105.2; (t = 0) 108.8 and 103.9.
For `NCC1(CC(=O)O)CCCCC1` [Gabapentin, 1-(aminomethyl)cyclohexane acetic acid], the “Assay (avg)” value (2 wk, 25/60) was determined as 106.6; the “Assay (avg)” value (2 wk, 40/75) was 105.8; the “Assay (avg)” value (t = 0) was 111.3. The Assay was 105.4 and 107.8 (2 wk, 25/60, acetic acid); 106.1 and 105.5 (2 wk, 40/75, acetic acid); 111.9 and 110.7 (t = 0, acetic acid).
`COC(=O)c1ccc(O)cc1` [Methylparaben]: the “Assay (avg)” value (2 wk, 25/60) is reported as 106.1; the “Assay (avg)” value (2 wk, 40/75) came to 108.1; the “Assay (avg)” value (t = 0) was 112.0. Moreover, the Assay is 108.2 and 104.1 (2 wk, 25/60); 109.6 and 106.7 (2 wk, 40/75); 111.1 and 112.9 (t = 0).
